We go through two compounds from patent publication US8598132B2, “Glycosylated indolocarbazoles, method for obtaining same and uses thereof” (Universidad de Oviedo, priority 2008, dated 2013).

Assay type in all cases: cell-based
One assay deals with A549 (lung). Briefly: SRB anti-tumour (growth inhibition) assay, A549. The settings on record: Homo sapiens, 48 h exposure, read-out: GI50 (concentration inhibiting 50% of cell growth). The protocol:
(§1) The compounds generated were tested against a series of cell lines from tumours. It quantitatively determined the cell growth and the viability, using a colorimetric assay type, using the reaction with sulforhodamine B (SRB), according to the technique described by Faircloth et al. (Journal of Tissue and Culture Methods 1988, 11, 201-205).
(§2) 96-well microtitre plates are inoculated with cells (5×10^3 cells per well) in aliquots of 195 μl of medium, incubating them during 18 h, in a medium without added compound, to allow the cells to adhere to the surface. Next, the compounds to be tested are added, in samples of 5 μl, at a range of concentrations of 10 to 10^−8 μg/ml, dissolved in DMSO/EtOH (0.2% in PS buffer). After 48 h exposure, the anti-tumour effect is measured using the Sulforhodamine B (SRB) technique: the cells are fixed adding 50 μl of cold […] (50%) (w/v) and it is incubated for 60 min. at 4° C. The plates are washed with deionized water and dried. 100 μl of SRB solution (0.4% w/v in 1% acetic acid) to each well and it is incubated during 10 min. at ambient temperature. The non-bound SRB is eliminated, washing with 1% acetic acid. The plates are air dried and the bound colorant is dissolved with Tris buffer. The optical densities are read in an automatic plate spectrophotometer reader at a wavelength of 490 nm.
(§3) For the compounds of formula (III), (IV), (V), (VI), (VII), (VIII), (IX) and the compounds of formula (XII), (XIII), (XIV), (XV), (XVI) and (XVIII).

A further assay deals with HT29 (colon). Put plainly: SRB anti-tumour (growth inhibition) assay, HT29. The settings on record: Homo sapiens, HT-29, 48 h exposure, read-out: GI50 (concentration inhibiting 50% of cell growth). The protocol:
as §1, §2, §3

A further assay has as its system MDA-MB-231 (breast). Put plainly: SRB anti-tumour (growth inhibition) assay, MDA-MB-231. The settings on record: Homo sapiens, 48 h exposure, read-out: GI50 (concentration inhibiting 50% of cell growth). How it is done:
as §1, §2, §3

The structures appear in SMILES notation.

For `CO[C@H]1[C@H](O)[C@@H](O)[C@H](n2c3c(Cl)cccc3c3c4c(c5c6cccc(Cl)c6[nH]c5c32)C(=O)NC4=O)O[C@@H]1CO` [RBM, rebeccamycin, reference compound], the GI50 in the assay with A549 (lung) was 0.76 µM; in the assay on HT29 (colon) it was 1.55 µM.

Take `CN[C@@H]1C[C@H]2O[C@@](C)([C@@H]1OC)n1c3ccccc3c3c4c(c5c6ccccc6n2c5c31)C(=O)NC4` [STP, staurosporine, reference compound]: the figures for the GI50 in the assay with MDA-MB-231 (breast), in the assay on A549 (lung) and in the assay on HT29 (colon) were 0.013 µM, 0.008 µM and 0.076 µM, respectively.
